{"source": "patent US4616007A", "about": "“Heterocyclthio compounds, process for their manufacture, pharmaceutical preparations that contain these compounds, and the use of the latter” (Ciba-Geigy Corporation, priority 1982, dated 1986)", "key": {"[1]": {"tested_on": "Streptococcus faecalis D 3", "test": "in vitro antibacterial activity (MIC)", "assay_type": "cell-based", "details": "Enterococcus faecalis, D3"}, "[2]": {"tested_on": "Klebsiella pneumoniae 327", "test": "in vitro antibacterial activity (MIC)", "assay_type": "cell-based"}, "Proteus rettgeri 856": {"tested_on": "Proteus rettgeri 856", "test": "in vitro antibacterial activity (MIC)", "assay_type": "cell-based", "details": "Providencia rettgeri"}, "[3]": {"tested_on": "Staphylococcus aureus 10 B", "test": "in vitro antibacterial activity (MIC)", "assay_type": "cell-based"}, "[4]": {"tested_on": "Pseudomonas aeruginosa ATCC 12055", "test": "in vitro antibacterial activity (MIC)", "assay_type": "cell-based", "details": "ATCC12055"}, "Proteus morganii 2359": {"tested_on": "Proteus morganii 2359", "test": "in vitro antibacterial activity (MIC)", "assay_type": "cell-based", "details": "Morganella morganii"}, "[5]": {"tested_on": "Enterobacter cloacae ATCC 13047", "test": "in vitro antibacterial activity (MIC)", "assay_type": "cell-based", "details": "ATCC13047"}, "Escherichia coli 205": {"tested_on": "Escherichia coli 205", "test": "in vitro antibacterial activity (MIC)", "assay_type": "cell-based"}, "[6]": {"tested_on": "Streptococcus pyogenes Aronson", "test": "in vitro antibacterial activity (MIC)", "assay_type": "cell-based"}, "[7]": {"tested_on": "Streptococcus pneumoniae III/84", "test": "in vitro antibacterial activity (MIC)", "assay_type": "cell-based"}, "[8]": {"tested_on": "Bacteroides fragilis L 01", "test": "in vitro antibacterial activity (MIC)", "assay_type": "cell-based", "details": "L01"}, "[9]": {"tested_on": "Pseudomonas aeruginosa K 799/61", "test": "in vitro antibacterial activity (MIC)", "assay_type": "cell-based", "details": "K799/61"}, "[10]": {"tested_on": "Haemophilus influenzae NCTC 4560", "test": "in vitro antibacterial activity (MIC)", "assay_type": "cell-based", "details": "NCTC4560"}, "[11]": {"tested_on": "Staphylococcus aureus 10 B", "test": "in vivo systemic infection of mice", "text": "(§1) The compounds of the formula I have valuable pharmacological properties, or can be used as intermediates for the manufacture of such compounds having valuable pharmacological properties. Compounds of the formula I in which R1 represents hydrogen or methyl, R2 represents hydroxy, R3 represents carboxy, or an esterified carboxy group that can be cleaved under physiological conditions, and R4 has the meaning given under formula I, and pharmacologically acceptable salts of such compounds having salt-forming groups have anti-bacterial activity. For example, they are effective in vitro against gram-positive and gram-negative cocci, for example Staphylococcus aureus, Streptococcus pyogenes, Streptococcus pneumoniae, and Streptococcus faecalis, and against gram-negative rod-shaped bacilli, such as Enterobacteriaceae, Haemophilus influenzae and Pseudomonas aeruginosa, and anaerobes, for example Bacteroides sp., in minimum concentrations of from approximately 0.02 to approximately 64 μg/ml. In vivo, in the case of systemic infection of mice, for example by Staphylococcus aureus or Streptococcus pyogenes, on subcutaneous or oral administration of compounds of the invention ED50 values of from approximately 8.5 to approximately 100 mg/kg result.\n(§2) In vivo in the systemic infection of mice, the following activity is found: […]"}, "[12]": {"tested_on": "Streptococcus pyogenes Aronson", "test": "in vivo systemic infection of mice", "text": "as §1, §2"}, "Escherichia coli 2018 [13]": {"tested_on": "Escherichia coli 2018", "test": "in vivo systemic infection of mice", "text": "as §1, §2"}, "[14]": {"tested_on": "Clostridium perfringens 194", "test": "microbe, parasite or virus in culture", "assay_type": "cell-based"}, "Serratia marcescens 344": {"tested_on": "Serratia marcescens 344", "test": "in vitro antibacterial activity (MIC)", "assay_type": "cell-based"}, "Proteus morganii 1518": {"tested_on": "Proteus morganii 1518", "test": "in vitro antibacterial activity (MIC)", "assay_type": "cell-based", "details": "Morganella morganii"}, "[15]": {"tested_on": "Staphylococcus aureus 2999i+p+", "test": "in vitro antibacterial activity (MIC)", "assay_type": "cell-based"}, "Escherichia coli DC 2": {"tested_on": "Escherichia coli DC 2", "test": "in vitro antibacterial activity (MIC)", "assay_type": "cell-based", "details": "DC2", "text": "as §1\n(§3) For example, in vitro, sodium (5R,6S)-2-[3-(1-methyltetrazol-5-ylthio)-propyl]-6-hydroxymethyl-2-penem-3-carboxylate (compound 1) and sodium (5R,6S)-2-[3-(1-dimethylaminoethyltetrazol-5-ylthio)-propyl]-6-hydroxymethyl-2-penem-3-carboxylate (compound 2) and sodium (5R,6S)-2-[3-(1-methyltetrazol-5-ylthio)-ethyl-6-hydroxymethyl-2-penem-3-carboxylate (compound 3), have the following activity: […]"}, "Escherichia coli UB 1005": {"tested_on": "Escherichia coli UB 1005", "test": "in vitro antibacterial activity (MIC)", "assay_type": "cell-based", "details": "UB1005", "text": "as §1, §3"}, "Proteus mirabilis 774": {"tested_on": "Proteus mirabilis 774", "test": "in vitro antibacterial activity (MIC)", "assay_type": "cell-based"}, "[16]": {"tested_on": "Escherichia coli 205 R+TEM", "test": "in vitro antibacterial activity (MIC)", "assay_type": "cell-based"}, "Escherichia coli 16": {"tested_on": "Escherichia coli 16", "test": "in vitro antibacterial activity (MIC)", "assay_type": "cell-based"}, "[17]": {"tested_on": "Enterobacter cloacae P 99", "test": "in vitro antibacterial activity (MIC)", "assay_type": "cell-based", "details": "P99"}, "Proteus mirabilis 1219": {"tested_on": "Proteus mirabilis 1219", "test": "in vitro antibacterial activity (MIC)", "assay_type": "cell-based"}, "[18]": {"tested_on": "Neisseria meningitidis 1316", "test": "in vitro antibacterial activity (MIC)", "assay_type": "cell-based"}, "Escherichia coli B-1385": {"tested_on": "Escherichia coli B-1385", "test": "in vitro antibacterial activity (MIC)", "assay_type": "cell-based", "details": "B1385", "text": "as §1, §3"}, "[19]": {"tested_on": "Staphylococcus aureus A 124", "test": "in vitro antibacterial activity (MIC)", "assay_type": "cell-based", "details": "A124", "text": "as §1, §3"}, "[20]": {"tested_on": "Staphylococcus aureus Wood 46", "test": "in vitro antibacterial activity (MIC)", "assay_type": "cell-based", "details": "WOOD46", "text": "as §1, §3"}, "Escherichia coli 2018 [21]": {"tested_on": "Escherichia coli 2018", "test": "in vitro antibacterial activity (MIC)", "assay_type": "cell-based", "text": "as §1, §3"}, "[22]": {"tested_on": "Neisseria gonorrhoeae 1317-4", "test": "in vitro antibacterial activity (MIC)", "assay_type": "cell-based", "details": "13174"}}}
{"smiles": "Cn1nnnc1SCCCC1=C(C(=O)[O-])N2C(=O)[C@H](CO)[C@H]2S1.[Na+]", "note": "[Compound 1, sodium (5R,6S)-2-[3-(1-methyltetrazol-5-ylthio)-propyl]-6-hydroxymethyl-2-penem-3-carboxylate]", "values": [{"measurement": "MIC", "setting": "[1]", "result": 64, "unit": "µg/mL"}, {"measurement": "MIC", "setting": "[2]", "result": 4, "unit": "µg/mL"}, {"measurement": "MIC", "setting": "Proteus rettgeri 856", "result": 4, "unit": "µg/mL"}, {"measurement": "MIC", "setting": "[3]", "result": 0.05, "unit": "µg/mL"}, {"measurement": "MIC", "setting": "[4]", "result": "> 128", "unit": "µg/mL"}, {"measurement": "MIC", "setting": "Proteus morganii 2359", "result": 2, "unit": "µg/mL"}, {"measurement": "MIC", "setting": "[5]", "result": 64, "unit": "µg/mL"}, {"measurement": "MIC", "setting": "Escherichia coli 205", "result": 2, "unit": "µg/mL"}, {"measurement": "MIC", "setting": "[6]", "result": 0.1, "unit": "µg/mL"}, {"measurement": "MIC", "setting": "[7]", "result": 0.02, "unit": "µg/mL"}, {"measurement": "MIC", "setting": "[8]", "result": 0.5, "unit": "µg/mL"}, {"measurement": "MIC", "setting": "[9]", "result": 2, "unit": "µg/mL"}, {"measurement": "MIC", "setting": "[10]", "result": 0.5, "unit": "µg/mL"}, {"measurement": "ED50", "setting": "[11]; po", "result": 90, "unit": "mg/kg"}, {"measurement": "ED50", "setting": "[11]; sc", "result": 60, "unit": "mg/kg"}, {"measurement": "ED50", "setting": "[12]; po", "result": "~30", "unit": "mg/kg"}, {"measurement": "ED50", "setting": "[12]; sc", "result": 8.5, "unit": "mg/kg"}, {"measurement": "ED50", "setting": "Escherichia coli 2018 [13]; Escherichia coli, 2018, po, p.o.", "result": 90, "unit": "mg/kg"}, {"measurement": "ED50", "setting": "Escherichia coli 2018 [13]; Escherichia coli, 2018, sc, s.c.", "result": "30 to 100", "unit": "mg/kg"}, {"measurement": "MIC", "setting": "[14]", "result": 0.02, "unit": "µg/mL"}, {"measurement": "MIC", "setting": "Serratia marcescens 344", "result": 16, "unit": "µg/mL"}, {"measurement": "MIC", "setting": "Proteus morganii 1518", "result": 4, "unit": "µg/mL"}, {"measurement": "MIC", "setting": "[15]", "result": 0.05, "unit": "µg/mL"}, {"measurement": "MIC", "setting": "Escherichia coli DC 2", "result": 2, "unit": "µg/mL"}, {"measurement": "MIC", "setting": "Escherichia coli UB 1005", "result": 4, "unit": "µg/mL"}, {"measurement": "MIC", "setting": "Proteus mirabilis 774", "result": 2, "unit": "µg/mL"}, {"measurement": "MIC", "setting": "[16]", "result": 4, "unit": "µg/mL"}, {"measurement": "MIC", "setting": "Escherichia coli 16", "result": 16, "unit": "µg/mL"}, {"measurement": "MIC", "setting": "[17]", "result": 32, "unit": "µg/mL"}, {"measurement": "MIC", "setting": "Proteus mirabilis 1219", "result": 8, "unit": "µg/mL"}]}
{"smiles": "Cn1nnnc1SCCC1=C(C(=O)[O-])N2C(=O)[C@H](CO)[C@H]2S1.[Na+]", "note": "[Compound 3, Sodium (5R,6S)-2-[2-(1-Methyltetrazol-5-ylthio)-ethyl]-6-hydroxymethyl-2-penem-3-carboxylate]", "values": [{"measurement": "MIC", "setting": "[1]", "result": 32, "unit": "µg/mL"}, {"measurement": "MIC", "setting": "[2]", "result": 2, "unit": "µg/mL"}, {"measurement": "MIC", "setting": "Proteus rettgeri 856", "result": 4, "unit": "µg/mL"}, {"measurement": "MIC", "setting": "[3]", "result": 0.05, "unit": "µg/mL"}, {"measurement": "MIC", "setting": "[4]", "result": "> 128", "unit": "µg/mL"}, {"measurement": "MIC", "setting": "Proteus morganii 2359", "result": 2, "unit": "µg/mL"}, {"measurement": "MIC", "setting": "[5]", "result": 32, "unit": "µg/mL"}, {"measurement": "MIC", "setting": "Escherichia coli 205", "result": 1, "unit": "µg/mL"}, {"measurement": "MIC", "setting": "[6]", "result": 0.1, "unit": "µg/mL"}, {"measurement": "MIC", "setting": "[7]", "result": 0.02, "unit": "µg/mL"}, {"measurement": "MIC", "setting": "[8]", "result": 0.2, "unit": "µg/mL"}, {"measurement": "MIC", "setting": "[9]", "result": 1, "unit": "µg/mL"}, {"measurement": "MIC", "setting": "[10]", "result": 2, "unit": "µg/mL"}, {"measurement": "ED50", "setting": "[12]; po", "result": 30, "unit": "mg/kg"}, {"measurement": "ED50", "setting": "[12]; sc", "result": 12, "unit": "mg/kg"}, {"measurement": "MIC", "setting": "[14]", "result": 0.1, "unit": "µg/mL"}, {"measurement": "MIC", "setting": "Serratia marcescens 344", "result": 16, "unit": "µg/mL"}, {"measurement": "MIC", "setting": "[18]", "result": 0.02, "unit": "µg/mL"}, {"measurement": "MIC", "setting": "Proteus morganii 1518", "result": 4, "unit": "µg/mL"}, {"measurement": "MIC", "setting": "[15]", "result": 0.05, "unit": "µg/mL"}, {"measurement": "MIC", "setting": "Escherichia coli DC 2", "result": 2, "unit": "µg/mL"}, {"measurement": "MIC", "setting": "Escherichia coli B-1385", "result": 2, "unit": "µg/mL"}, {"measurement": "MIC", "setting": "[19]", "result": 0.5, "unit": "µg/mL"}, {"measurement": "MIC", "setting": "Escherichia coli UB 1005", "result": 2, "unit": "µg/mL"}, {"measurement": "MIC", "setting": "[20]", "result": 0.05, "unit": "µg/mL"}, {"measurement": "MIC", "setting": "Escherichia coli 2018 [21]", "result": 0.5, "unit": "µg/mL"}, {"measurement": "MIC", "setting": "Proteus mirabilis 774", "result": 2, "unit": "µg/mL"}, {"measurement": "MIC", "setting": "[16]", "result": 2, "unit": "µg/mL"}, {"measurement": "MIC", "setting": "Escherichia coli 16", "result": 4, "unit": "µg/mL"}, {"measurement": "MIC", "setting": "[22]", "result": 0.01, "unit": "µg/mL"}, {"measurement": "MIC", "setting": "[17]", "result": 16, "unit": "µg/mL"}, {"measurement": "MIC", "setting": "Proteus mirabilis 1219", "result": 4, "unit": "µg/mL"}]}
